Numbers after ± are expanded uncertainties.
Test: xn = mol fraction of the nth substance listed
Settings: 100 kPa, Liquid; for viscosity: Falling or rolling sphere viscometry; for mass density: Vibrating tube method

CCCC[N+]1(C)CCOCC1.[Br-] [4-butyl-4-methylmorpholinium bromide] + O
Settings	mass density [kg/m3]	viscosity [mPa·s]
298.15 K, x1 = 0.0017	1002.2 ± 1.2	–
298.15 K, x1 = 0.0033	1007.1 ± 1.2	–
298.15 K, x1 = 0.0066	1016.8 ± 1.2	–
298.15 K, x1 = 0.0088	1022.9 ± 1.1	–
298.15 K, x1 = 0.0167	1043.3 ± 1.1	–
298.15 K, x1 = 0.034	1081.4 ± 1.1	–
298.15 K, x1 = 0.0363	1086 ± 1.1	1.96 ± 0.2
298.15 K, x1 = 0.0601	1125.3 ± 1	3.204 ± 0.32
298.15 K, x1 = 0.0988	1170.8 ± 1	6.179 ± 0.62
298.15 K, x1 = 0.1242	1192 ± 1	9.576 ± 0.96
298.15 K, x1 = 0.154	1211.4 ± 1.1	15.07 ± 1.5
298.15 K, x1 = 0.2027	1234.7 ± 1.1	32.61 ± 3.3
298.15 K, x1 = 0.2383	1247.4 ± 1.2	57.4 ± 5.8
298.15 K, x1 = 0.2569	1252.8 ± 1.2	81.23 ± 8.2
298.15 K, x1 = 0.3007	1263.9 ± 1.3	159.1 ± 17
303.15 K, x1 = 0.0017	1000.7 ± 1.2	–
303.15 K, x1 = 0.0033	1005.6 ± 1.2	–
303.15 K, x1 = 0.0066	1015.2 ± 1.2	–
303.15 K, x1 = 0.0088	1021.3 ± 1.1	–
303.15 K, x1 = 0.0167	1041.5 ± 1.1	–
303.15 K, x1 = 0.034	1079.1 ± 1.1	–
303.15 K, x1 = 0.0363	1083.7 ± 1.1	1.715 ± 0.17
303.15 K, x1 = 0.0601	1122.6 ± 1	2.745 ± 0.28
303.15 K, x1 = 0.0988	1167.7 ± 1	5.16 ± 0.52
303.15 K, x1 = 0.1242	1188.7 ± 1	7.888 ± 0.79
303.15 K, x1 = 0.154	1208.1 ± 1.1	12.19 ± 1.2
303.15 K, x1 = 0.2027	1231.3 ± 1.1	25.31 ± 2.5
303.15 K, x1 = 0.2383	1244 ± 1.2	42.75 ± 4.3
303.15 K, x1 = 0.2569	1249.4 ± 1.2	60.27 ± 6.1
303.15 K, x1 = 0.3007	1260.5 ± 1.3	113.5 ± 12
308.15 K, x1 = 0.0017	999.1 ± 1.2	–
308.15 K, x1 = 0.0033	1003.9 ± 1.2	–
308.15 K, x1 = 0.0066	1013.4 ± 1.2	–
308.15 K, x1 = 0.0088	1019.5 ± 1.1	–
308.15 K, x1 = 0.0167	1039.5 ± 1.1	–
308.15 K, x1 = 0.034	1076.7 ± 1.1	–
308.15 K, x1 = 0.0363	1081.3 ± 1.1	1.5 ± 0.15
308.15 K, x1 = 0.0601	1119.7 ± 1	2.367 ± 0.24
308.15 K, x1 = 0.0988	1164.5 ± 1	4.353 ± 0.44
308.15 K, x1 = 0.1242	1185.4 ± 1	6.566 ± 0.66
308.15 K, x1 = 0.154	1204.7 ± 1	9.969 ± 1
308.15 K, x1 = 0.2027	1227.9 ± 1.1	20 ± 2
308.15 K, x1 = 0.2383	1240.7 ± 1.2	32.82 ± 3.3
308.15 K, x1 = 0.2569	1246.1 ± 1.2	45.77 ± 4.6
308.15 K, x1 = 0.3007	1257.2 ± 1.3	82.89 ± 8.4
313.15 K, x1 = 0.0017	997.2 ± 1.2	–
313.15 K, x1 = 0.0033	1002 ± 1.2	–
313.15 K, x1 = 0.0066	1011.4 ± 1.1	–
313.15 K, x1 = 0.0088	1017.4 ± 1.1	–
313.15 K, x1 = 0.0167	1037.3 ± 1.1	–
313.15 K, x1 = 0.034	1074.2 ± 1.1	–
313.15 K, x1 = 0.0363	1078.7 ± 1.1	1.323 ± 0.13
313.15 K, x1 = 0.0601	1116.8 ± 1	2.061 ± 0.21
313.15 K, x1 = 0.0988	1161.3 ± 1	3.716 ± 0.37
313.15 K, x1 = 0.1242	1182.1 ± 1	5.497 ± 0.55
313.15 K, x1 = 0.154	1201.3 ± 1	8.279 ± 0.83
313.15 K, x1 = 0.2027	1224.5 ± 1.1	16.07 ± 1.6
313.15 K, x1 = 0.2383	1237.3 ± 1.1	25.69 ± 2.6
313.15 K, x1 = 0.2569	1242.7 ± 1.2	35.46 ± 3.6
313.15 K, x1 = 0.3007	1253.9 ± 1.3	62.18 ± 6.2
318.15 K, x1 = 0.0017	995.2 ± 1.2	–
318.15 K, x1 = 0.0033	999.9 ± 1.2	–
318.15 K, x1 = 0.0066	1009.3 ± 1.1	–
318.15 K, x1 = 0.0088	1015.3 ± 1.1	–
318.15 K, x1 = 0.0167	1034.9 ± 1.1	–
318.15 K, x1 = 0.034	1071.5 ± 1.1	–
318.15 K, x1 = 0.0363	1076 ± 1.1	1.175 ± 0.12
318.15 K, x1 = 0.0601	1113.8 ± 1	1.81 ± 0.18
318.15 K, x1 = 0.0988	1158 ± 1	3.204 ± 0.32
318.15 K, x1 = 0.1242	1178.7 ± 1	4.65 ± 0.47
318.15 K, x1 = 0.154	1197.9 ± 1	6.951 ± 0.7
318.15 K, x1 = 0.2027	1221.1 ± 1.1	13.12 ± 1.3
318.15 K, x1 = 0.2383	1233.9 ± 1.1	20.44 ± 2.1
318.15 K, x1 = 0.2569	1239.3 ± 1.2	28.04 ± 2.8
318.15 K, x1 = 0.3007	1250.6 ± 1.3	47.76 ± 4.8
323.15 K, x1 = 0.0017	993 ± 1.2	–
323.15 K, x1 = 0.0033	997.7 ± 1.2	–
323.15 K, x1 = 0.0066	1007 ± 1.1	–
323.15 K, x1 = 0.0088	1012.9 ± 1.1	–
323.15 K, x1 = 0.0167	1032.5 ± 1.1	–
323.15 K, x1 = 0.034	1068.8 ± 1.1	–
323.15 K, x1 = 0.0363	1073.2 ± 1.1	1.039 ± 0.1
323.15 K, x1 = 0.0601	1110.8 ± 1	1.578 ± 0.16
323.15 K, x1 = 0.0988	1154.6 ± 1	2.745 ± 0.28
323.15 K, x1 = 0.1242	1175.3 ± 1	3.912 ± 0.39
323.15 K, x1 = 0.154	1194.4 ± 1	5.805 ± 0.58
323.15 K, x1 = 0.2027	1217.7 ± 1.1	10.72 ± 1.1
323.15 K, x1 = 0.2383	1230.5 ± 1.1	16.36 ± 1.6
323.15 K, x1 = 0.2569	1235.9 ± 1.2	22.35 ± 2.2
323.15 K, x1 = 0.3007	1247.2 ± 1.3	36.9 ± 3.7
328.15 K, x1 = 0.0017	990.6 ± 1.2	–
328.15 K, x1 = 0.0033	995.3 ± 1.2	–
328.15 K, x1 = 0.0066	1004.5 ± 1.1	–
328.15 K, x1 = 0.0088	1010.4 ± 1.1	–
328.15 K, x1 = 0.0167	1029.8 ± 1.1	–
328.15 K, x1 = 0.034	1065.9 ± 1.1	–
328.15 K, x1 = 0.0363	1070.1 ± 1.1	0.923 ± 0.093
328.15 K, x1 = 0.0601	1107.6 ± 1	1.387 ± 0.14
328.15 K, x1 = 0.0988	1151.2 ± 1	2.377 ± 0.24
328.15 K, x1 = 0.1242	1171.8 ± 1	3.323 ± 0.33
328.15 K, x1 = 0.154	1191 ± 1	4.888 ± 0.49
328.15 K, x1 = 0.2027	1214.3 ± 1.1	8.882 ± 0.89
328.15 K, x1 = 0.2383	1227.1 ± 1.1	13.28 ± 1.3
328.15 K, x1 = 0.2569	1232.5 ± 1.2	18.01 ± 1.8
328.15 K, x1 = 0.3007	1243.9 ± 1.3	29.03 ± 2.9
333.15 K, x1 = 0.0017	988.1 ± 1.2	–
333.15 K, x1 = 0.0033	992.7 ± 1.1	–
333.15 K, x1 = 0.0066	1001.9 ± 1.1	–
333.15 K, x1 = 0.0088	1007.8 ± 1.1	–
333.15 K, x1 = 0.0167	1027.1 ± 1.1	–
333.15 K, x1 = 0.034	1062.9 ± 1.1	–
333.15 K, x1 = 0.0363	1067.3 ± 1.1	0.83 ± 0.083
333.15 K, x1 = 0.0601	1104.4 ± 1	1.233 ± 0.12
333.15 K, x1 = 0.0988	1147.8 ± 1	2.082 ± 0.21
333.15 K, x1 = 0.1242	1168.4 ± 1	2.867 ± 0.29
333.15 K, x1 = 0.154	1187.5 ± 1	4.16 ± 0.42
333.15 K, x1 = 0.2027	1210.8 ± 1.1	7.465 ± 0.75
333.15 K, x1 = 0.2383	1223.7 ± 1.1	10.98 ± 1.1
333.15 K, x1 = 0.2569	1229.1 ± 1.2	14.86 ± 1.5
333.15 K, x1 = 0.3007	1240.5 ± 1.3	23.47 ± 2.4
338.15 K, x1 = 0.0017	985.4 ± 1.2	–
338.15 K, x1 = 0.0033	990 ± 1.1	–
338.15 K, x1 = 0.0066	999.2 ± 1.1	–
338.15 K, x1 = 0.0088	1005 ± 1.1	–
338.15 K, x1 = 0.0167	1024.2 ± 1.1	–
338.15 K, x1 = 0.034	1059.9 ± 1.1	–
338.15 K, x1 = 0.0363	1064.3 ± 1.1	0.751 ± 0.075
338.15 K, x1 = 0.0601	1101.1 ± 1	1.106 ± 0.11
338.15 K, x1 = 0.0988	1144.3 ± 1	1.836 ± 0.18
338.15 K, x1 = 0.1242	1164.8 ± 1	2.502 ± 0.25
338.15 K, x1 = 0.154	1184 ± 1	3.568 ± 0.36
338.15 K, x1 = 0.2027	1207.3 ± 1.1	6.337 ± 0.64
338.15 K, x1 = 0.2383	1220.3 ± 1.1	9.093 ± 0.91
338.15 K, x1 = 0.2569	1225.8 ± 1.2	12.32 ± 1.2
338.15 K, x1 = 0.3007	1237.2 ± 1.3	19.19 ± 1.9
343.15 K, x1 = 0.0017	982.6 ± 1.1	–
343.15 K, x1 = 0.0033	987.2 ± 1.1	–
343.15 K, x1 = 0.0066	996.3 ± 1.1	–
343.15 K, x1 = 0.0088	1002.1 ± 1.1	–
343.15 K, x1 = 0.0167	1021.2 ± 1.1	–
343.15 K, x1 = 0.034	1056.7 ± 1.1	–
343.15 K, x1 = 0.0363	1061.1 ± 1.1	0.685 ± 0.069
343.15 K, x1 = 0.0601	1097.5 ± 1	0.992 ± 0.1
343.15 K, x1 = 0.0988	1140.8 ± 1	1.633 ± 0.16
343.15 K, x1 = 0.1242	1161.3 ± 1	2.288 ± 0.23
343.15 K, x1 = 0.154	1180.4 ± 1	3.149 ± 0.32
343.15 K, x1 = 0.2027	1203.8 ± 1.1	5.442 ± 0.55
343.15 K, x1 = 0.2383	1216.8 ± 1.1	7.452 ± 0.75
343.15 K, x1 = 0.2569	1222.4 ± 1.2	10.42 ± 1.1
343.15 K, x1 = 0.3007	1233.8 ± 1.3	15.92 ± 1.6

Reference: the NIST ThermoML archive (doi:10.1016/j.jct.2016.03.030)
